Data on nine compounds can be found in patent US20100056636A1, “N-Substituted-P-Menthane-3-Carboxamide and Uses Thereof” (priority 2006, published 2010).

For one data set, the system named is panel of flavourists. Description: Comparative sensorial evaluation: aqueous solutions tasted by a panel of flavourists. The format is in vivo, human. The procedure: Four aqueous solutions were prepared: A. […] 20 ppm WS-3 dissolved in solution A; and D. 2 ppm WS-3 dissolved in solution A. These solutions were tasted and evaluated by a panel of flavourists. […]

Data set [1] deals with panel of experienced flavourists. Put plainly: Hard boiled sweets containing cold receptor stimulant, evaluated by a panel of experienced flavourists. The settings on record: for strength of products A, B and C relative to each other: hard boiled sweets: A 50 ppm WS-3, B 5 ppm example 1, C 2.5 ppm example 2. It counts as in vivo, human. How it is done: The sweets were prepared according to the following procedure. Sugar, water and glucose syrup are mixed and boiled till 146° C. The mix is cooled to 120° C., the cold receptor stimulant is added and carefully mixed in. The mix is poured on a cooling table and folded in and molded on a roller.
The sweets prepared were evaluated by a panel of experienced flavourists.

The test system of another data set is small group of panelists. Put plainly: Panel tasting of aqueous solutions: cooling intensity matched to a solution of menthol at 2 ppm. The format is in vivo, human. The settings on record: tasted.
The conditions of data set [2]: cited from earlier work.

On to `CC1CCC(C(C)C)C(C(=O)NCC(O)c2ccccc2)C1` (stereo not shown) [Example 1, 2-isopropyl-5-methyl-cyclohexanecarboxylic acid (2-hydroxy-2-phenylethyl)-amide], for which the “sensory description of solution” value in the data set on panel of flavourists (Example 3, solution B: 2 ppm product of example 1 dissolved in 20 ppm menthol aqueous solution) was ““high initial cooling burst”, “long-lasting cooling”, “cold perception in whole mouth”, “some hotness””. Besides, in the data set with panel of flavourists (Example 3: 2 ppm product of example 1 versus 2 ppm WS-3, both in 20 ppm menthol solution), the “strength of solution B relative to solution D” value is reported as “much stronger”. In addition, the “strength of solution B relative to solution C” value in the data set on panel of flavourists (Example 3: 2 ppm product of example 1 versus 20 ppm WS-3, both in 20 ppm menthol solution) is “comparable strength”. The “location of effect and aftertaste” value in data set [1] (Product B: 5 ppm product prepared in example 1) is “in the whole mouth and has a tingling-cool aftertaste”. In data set [1] (Product B: 5 ppm product prepared in example 1, A = 50 ppm WS-3), the “sensory description of hard boiled sweet” value is ““giving a cold sensation which is not irritating” and “much more longlasting than A””. In addition, the “strength of products A, B and C relative to each other” value in data set [1] is recorded as “comparable”. The “Concentration with cooling intensity similar to or slightly higher than that of a solution of menthol at 2 ppm” value (“Concentration” below) with small group of panelists is given as 0.005 ppm.

Regarding `CC1CCC(C(C)C)C(C(=O)NCCc2ccccc2)C1` (stereo not shown) [Example 2, 2-isopropyl-5-methyl-cyclohexanecarboxylic acid phenylethyl-amide], the “sensory description of solution” value in the data set on panel of flavourists (Example 4, solution B: 1 ppm product of example 2 dissolved in 20 ppm menthol aqueous solution) was ““cold perception with a pain sensation”, “aggressive, long-lasting cooling”, “almost noxious cold”, “slightly tingling””. Moreover, the “strength of solution B relative to solution D” value in the data set with panel of flavourists (Example 4: 1 ppm product of example 2 versus 2 ppm WS-3, both in 20 ppm menthol solution) is listed as “much stronger”. In the data set with panel of flavourists (Example 4: 1 ppm product of example 2 versus 20 ppm WS-3, both in 20 ppm menthol solution), the “strength of solution B relative to solution C” value is recorded as “comparable strength”. Moreover, the “sensory description of hard boiled sweet” value in data set [1] (Product C: 2.5 ppm product prepared in example 2) was ““slow release cooling”, “giving a cold effect in the whole mouth”, “tingling pain sensation enhancing the cooling effect and “very longlasting””. The “strength of products A, B and C relative to each other” value in data set [1] is “comparable”. In the data set with small group of panelists, the “Concentration” value came to 0.2 ppm.

With `CCOc1ccccc1CCNC(=O)C1CC(C)CCC1C(C)C` (stereo not shown) [Example 5, N-(2-ethoxyphenethyl)-2-isopropyl-5-methylcyclohexane-carboxamide], the “Concentration” value in the data set on small group of panelists was found to be 0.002 ppm.

With `CC1CCC(C(C)C)C(C(=O)N[C@H]2C[C@H]2c2ccccc2)C1` (stereo partly drawn) [Example 6, 2-isopropyl-5-methyl-N-((1S,2S)-2-phenylcyclopropyl)-cyclohexanecarboxamide], the “Concentration” value in the data set on small group of panelists turned out to be 0.1 ppm.

Turning to `CCNC(=O)C1CC(C)CCC1C(C)C` (stereo not shown) [WS-3, N-Ethyl-p-menthane-3-carboxamide, reference compound], the “sensory description of solution, compared with solution B” value is ““more neutral cold perception than B”, “less aggressive cooling than B”, “less long-lasting cooling than B”” in the data set on panel of flavourists (Example 3, solution C: 20 ppm WS-3 in 20 ppm menthol solution, B = 2 ppm product of example 1 in 20 ppm menthol); ““more neutral cold perception than B”, “less aggressive cooling than B”, “less long-lasting cooling than B”” in the data set on panel of flavourists (Example 3, solution D: 2 ppm WS-3 in 20 ppm menthol solution, B = 2 ppm product of example 1 in 20 ppm menthol); ““more neutral cold perception than B”, “less aggressive cooling than B”, “less long-lasting cooling than B”” with panel of flavourists (Example 4, solution C: 20 ppm WS-3 in 20 ppm menthol solution, B = 1 ppm product of example 2 in 20 ppm menthol); ““more neutral cold perception than B”, “less aggressive cooling than B”, “less long-lasting cooling than B”” in the data set on panel of flavourists (Example 4, solution D: 2 ppm WS-3 in 20 ppm menthol solution, B = 1 ppm product of example 2 in 20 ppm menthol). Moreover, the “sensory description of hard boiled sweet” value in data set [1] (Product A (control): 50 ppm WS-3) is ““giving coolness and a cold perception” and “having an immediate cooling effect” and “not longlasting””. Besides, in data set [1] (Product A: hard boiled sweet, dosage of 50 ppm WS-3), the “feeling in the throat” value is listed as “irritating feeling in the throat”. In addition, in data set [1], the “strength of products A, B and C relative to each other” value is given as “comparable”. In addition, the “Concentration” value in the data set with small group of panelists came out at 1.5 ppm.

On to `CC1CCC(C(C)C)C(O)C1` (stereo not shown) [menthol, reference compound], for which the “sensory description of solution” value in the data set on panel of flavourists (solution A: 20 ppm menthol in water) is ““cooling””. Besides, the “Concentration” value in the data set with small group of panelists is 2.0 ppm.

Regarding “Ethyl 3-(p-menthane-3-carboxamido)acetate [(1R,3R,4S)-WS-5]”, the “perceived cooling relative to WS-3” value in data set [2] (reported in US Patent Application No. 20050222256) was 2.5-3.0 times.

Turning to “Ethyl 3-(p-menthane-3-carboxamido)acetate [WS-5]”, in data set [2] (known), the “coolness relative to WS-3” value is “significantly cooler than WS-3”.

As to “N-(3,4-dimethylphenethyl)-2-isopropyl-5-ethylcyclo-hexanecarboxamide [Example 7]”, the “Concentration” value in the data set on small group of panelists is reported as 0.002 ppm.
